System: cigarette smoke-induced COPD
Assay: Acute (4 day) cigarette smoke exposure COPD model
Type: in vivo, mouse
Conditions: acute 4 day smoke model
Description: The efficacy of GSNOR inhibitors was assessed in a mouse model of chronic obstructive pulmonary disease (COPD) induced by short duration (4 days or 11 days) of exposure to cigarette smoke. Infiltration of inflammatory cells into the bronchoalveolar lavage fluid (BALF) and BALF levels of chemokines involved in inflammation and tissue turnover/repair were measured to assess the influences of GSNOR inhibitors on some of the early events associated with the initiation and progression of COPD.
Efficacy of GSNOR inhibitors against COPD was explored using acute (4 day) and subchronic (11 day) models of cigarette smoke-induced COPD in mice. […] In animal models, changes in lung pathology are only evident after extended (several months) duration of exposure to cigarette smoke, thus making chronic models prohibitive as effective screening tools. More recently, models exploring inflammatory responses after short duration (2 weeks or less) of smoke exposure in mice have been utilized as tools for screening efficacy and mechanisms of action of novel therapeutics against COPD. The key roles of inflammation in the initiation and progression of COPD, make these short duration models relevant for initial tests of efficacy of novel therapeutics.
Female C57Bl/6 mice (N=8 per group) were exposed to cigarette smoke using a whole body exposure chamber. Mice were exposed daily for 4 consecutive days to 4 cycles of smoke from 6 sequential cigarettes (Kentucky 3R4F without filter) with a 30 minute smoke free interval between cycles. GSNOR inhibitors were administered daily via oral dosing at 10 mg/kg/day for 7 days starting 2 days prior to smoke exposure and continuing 1 day post-exposure. The effects of GSNOR inhibitors were assessed by quantitating the numbers of total cells, leukocytes, and leukocytes differentials in the BALF via light microscopy and the levels of BALF chemokines via ELISA at approximately 24 h after the last smoke exposure. The effect of GSNOR inhibitors were compared to vehicle treated controls. The PDE4 inhibitor, roflumilast, was used as the positive control for the study. A group of naïve mice (N=8) was exposed to air and used as a negative control for the study.

O=c1c2ccc(O)cc2oc(C(F)(F)F)c1[C@H]1CC[C@H](C(=O)O)CC1 [IV-25]
effects compared with roflumilast: comparable to or greater than those observed for roflumilast
BALF chemokines (oral 10 mg/kg/day for 7 days): restored BALF chemokines towards levels observed in naïve mice
